Measured values reported in US20230204598A1, “MAM-SPECIFIC FLUORESCENCE MARKER AND USE THEREOF” (POSTECH ACADEMY-INDUSTRY FOUNDATION, priority 2016, published 2023).

Test system: MAM structure in HEK293 cells
Experiment: Verification of MAM specificity of the fluorescent marker using a drug (MAM suppressor)
Type: cell-based
Settings: HEK293 cells transfected with the MAM-specific bimolecular fluorescent marker; 150 μM added to the cell culture solution; incubated for 3 or 24 hours; fluorescence microscope (FIG. 7)
Procedure: HEK293 cells transfected in Example 4-1 were incubated in DMEM containing a 10% fetal bovine serum (FBS) for 24 hours under conditions of 37° C. and 5% CO2. Afterward, the culture solution was washed with PBS, and then cells were fixed by treatment with a 4% para-formaldehyde cell fixing solution for 10 minutes. The cell fixing solution was sufficiently washed with PBS, and a cover glass was immobilized on a slide glass using a mounting solution, thereby manufacturing a microscope sample. […]
The MAM-specific bimolecular fluorescent marker was transfected into HEK293 cells in the same manner as in Example 5-1, 150 μM of methyl-β-cyclodextrin known as a MAM suppressor was added to the cell culture solution, and the cells were incubated for 3 or 24 hours under cell culture conditions, thereby manufacturing a microscope sample, and then the microscope sample was observed using a fluorescence microscope.

methyl-β-cyclodextrin
fluorescence level of the MAM-specific fluorescent marker: significantly reduced
